Like-named read-outs stand apart in the source and are kept apart here.
Tests used:
[1] = Plasma stability assay, rat plasma; format: in vitro ADME; conditions: 10 μM, 37° C.
Description: Plasma stability determination of the test compounds in rat, dog, cynomolgus monkey and human plasma is performed using HPLC-MS. For rat, incubations are carried out in 96-well polypropylene plates in 5 aliquots of 70 μL each (one for each time point). […] Five time points are analyzed (0, 15, 120, 480 and 1440 min). For dog, monkey and human, test compounds (2 μM, final solvent concentration 1%) were also incubated at 37° C. and analyzed at five time points (0, 10, 30, 60 and 120 min). All incubations are performed in duplicates. The samples are analyzed by HPLC-MS. The percentage of parent compound remaining after incubation in plasma is determined.

[2] = Polymorph screening of solid state drug substances; conditions: for Dry method and appearance: after stirring 50 °C 72 hours, dried solid; for XRPD results (Dried): dried solid after 50 °C 72 hours; for Visual observation 50° C. / Visual observation RT: target conc. 100 mg/ml
[3] = heating temp. 60 °C, obs. temp. 25 °C
[4] = heating temp. 40 °C, obs. temp. 40 °C
[5] = heating temp. 60 °C, obs. temp. 40 °C
[6] = compound after slurry in EtOAc, temperatures N/A

| Compound | % remaining at time point ([1]; 0 min) [%] | % remaining at time point ([1]; 15 min) [%] | % remaining at time point ([1]; 120 min) [%] | % remaining at time point ([1]; 480 min) [%] | % remaining at time point ([1]; 1440 min) [%] | Dry method and appearance ([2]; Acetone) | XRPD results (Dried) ([2]; Acetone) | Visual observation 50° C. ([2]; Acetone) | Visual observation RT ([2]; Acetone) | Dry method and appearance ([2]; EtOAc) | XRPD results (Dried) ([2]; EtOAc) | Visual observation 50° C. ([2]; EtOAc) | Visual observation RT ([2]; EtOAc) | Dry method and appearance ([2]; Heptane) | XRPD results (Dried) ([2]; Heptane) | Visual observation 50° C. ([2]; Heptane) | Visual observation RT ([2]; Heptane) | Dry method and appearance ([2]; Isopropanol) | XRPD results (Dried) ([2]; Isopropanol) | Visual observation 50° C. ([2]; Isopropanol) | other results |
| --- | --- | --- | --- | --- | --- | --- | --- | --- | --- | --- | --- | --- | --- | --- | --- | --- | --- | --- | --- | --- | --- |
| C=C1CC[C@@]2(O)C3Cc4ccc(OC(=O)OCCCCCCCCCCCCCC)c5c4[C@@]2(CCN3CC2CC2)[C@H]1O5 [Compound 31, (4aS,7aS,12bS)-3-(cyclopropylmethyl)-4a-hydroxy-7-methylene-2,3,4,4a,5,6,7,7a-octahydro-1H-4,12-methanobenzofuro[3,2-e]isoquinolin-9-yl tetradecyl carbonate] | 100 | 123.2 | 73.5 | 54.4 | 46.4 | Evaporation/white powder | Pattern A | Clear | Slurry | Evaporation/white powder | Pattern A | Clear | Clear | Evaporation/white powder | Pattern A | Clear | Slurry | Evaporation/white powder | Pattern A | Clear | Approximate Solubility (mg/mL) in Excipient: Cottonseed oil [3]: >416.9 mg/mL; Approximate Solubility (mg/mL) in Excipient: Sesame oil [3]: >413.5 mg/mL; Equilibrium solubility (mg/mL) Water [4]: <0.001 mg/mL; Visual observation RT ([2]; Isopropanol): Clear; Dry method and appearance ([2]; MTBE): Evaporation/white powder; XRPD results (Dried) ([2]; MTBE): Pattern A; Visual observation 50° C. ([2]; MTBE): Clear; Visual observation RT ([2]; MTBE): Slurry |
| CCCCCCCCCCCCCCCC(=O)Oc1ccc2c3c1O[C@H]1C(=O)CC[C@@]4(O)C(C2)N(CC2CC2)CC[C@]314 [Compound 55, (4aS,7aR,12bS)-3-(cyclopropylmethyl)-4a-hydroxy-7-oxo-2,3,4,4a,5,6,7,7a-octahydro-1H-4,12-methanobenzofuro[3,2-e]isoquinolin-9-yl palmitate] | 100 | 77.3 | 47.2 | 27.1 | 15.6 | Evaporation/white powder | Pattern B | Clear | Slurry | Evaporation/white powder | Pattern B | Clear | Slurry | Evaporation/white powder | Pattern B | Clear | Slurry | Evaporation/white powder | Pattern B | Clear | Approximate Solubility (mg/mL) in Excipient: Cottonseed oil [3]: <50 mg/mL; Approximate Solubility (mg/mL) in Excipient: Cottonseed oil [5]: >400.1 mg/mL; Approximate Solubility (mg/mL) in Excipient: Ethanol [5]: >401.1 mg/mL; Approximate Solubility (mg/mL) in Excipient: Sesame oil [3]: <50 mg/mL; Approximate Solubility (mg/mL) in Excipient: Sesame oil [5]: >394.8 mg/mL; Equilibrium solubility (mg/mL) Water [6]: <0.0005 mg/mL; Visual observation RT ([2]; Isopropanol): Slurry; Dry method and appearance ([2]; MTBE): Evaporation/white powder; XRPD results (Dried) ([2]; MTBE): Pattern B; Visual observation 50° C. ([2]; MTBE): Clear; Visual observation RT ([2]; MTBE): Clear |
| CCCCCCCCCCCCCCCCOC(=O)Oc1ccc2c3c1O[C@H]1C(=O)CC[C@@]4(O)C(C2)N(CC2CC2)CC[C@]314 [Compound 21, (4aS,7aR,12bS)-3-(cyclopropylmethyl)-4a-hydroxy-7-oxo-2,3,4,4a,5,6,7,7a-octahydro-1H-4,12-methanobenzofuro[3,2-e]isoquinolin-9-yl hexadecyl carbonate] | 100 | 73.5 | 68.3 | 59.8 | 40.9 | Evaporation/white powder | Pattern A | Clear | Slurry | Evaporation/white powder | Pattern A | Clear | Slurry | Evaporation/white powder | Pattern A | Clear | Slurry | Evaporation/white powder | Pattern A | Clear | Approximate Solubility (mg/mL) in Excipient: Cottonseed oil [5]: 101 to 134.8 mg/mL; Approximate Solubility (mg/mL) in Excipient: Ethanol [5]: 50 to 100 mg/mL; Approximate Solubility (mg/mL) in Excipient: Sesame oil [5]: 101 to 134.5 mg/mL; Visual observation RT ([2]; Isopropanol): Slurry; Dry method and appearance ([2]; MTBE): Evaporation/white powder; XRPD results (Dried) ([2]; MTBE): Pattern A; Visual observation 50° C. ([2]; MTBE): Clear; Visual observation RT ([2]; MTBE): Clear |
| C=C1CC[C@@]2(O)C3Cc4ccc(OC(=O)CCCCCCCCCCCCCCCCCCCCC)c5c4[C@@]2(CCN3CC2CC2)[C@H]1O5 [Compound 14, (4aS,7aS,12bS)-3-(cyclopropylmethyl)-4a-hydroxy-7-methylene-2,3,4,4a,5,6,7,7a-octahydro-1H-4,12-methanobenzofuro[3,2-e]isoquinolin-9-yl docosanoate] | 100 | 94 | 112 | 107 | 120 | Evaporation/white powder | Pattern A | Clear | Slimy | Evaporation/white powder | Pattern A | Clear | Slurry | Centrifugation/white powder | Pattern B | Slurry | Slurry | Evaporation/white powder | Pattern A | Clear | Approximate Solubility (mg/mL) in Excipient: Cottonseed oil [4]: <50 mg/mL; Approximate Solubility (mg/mL) in Excipient: Cottonseed oil [5]: <25 mg/mL; Approximate Solubility (mg/mL) in Excipient: Ethanol [4]: 69 to 83 mg/mL; Approximate Solubility (mg/mL) in Excipient: Sesame oil [4]: <51 mg/mL; Approximate Solubility (mg/mL) in Excipient: Sesame oil [5]: <25 mg/mL; Equilibrium solubility (mg/mL) Water [6]: <0.0005 mg/mL; Equilibrium solubility (mg/mL) Water (compound after slurry in Heptane, temperatures N/A): <0.0005 mg/mL; Visual observation RT ([2]; Isopropanol): Clear; Dry method and appearance ([2]; MTBE): Evaporation/white powder; XRPD results (Dried) ([2]; MTBE): Pattern A; Visual observation 50° C. ([2]; MTBE): Clear; Visual observation RT ([2]; MTBE): Clear |
| CCCCC/C=C\C/C=C\CCCCCCCC(=O)Oc1ccc2c3c1O[C@H]1C(=O)CC[C@@]4(O)C(C2)N(CC2CC2)CC[C@]314 [Compound 53, (4aS,7aR,12bS)-3-(cyclopropylmethyl)-4a-hydroxy-7-oxo-2,3,4,4a,5,6,7,7a-octahydro-1H-4,12-methanobenzofuro[3,2-e]isoquinolin-9-yl (9Z,12Z)-octadeca-9,12-di.enoate] | 100 | 46.85 | 19.6 | 7.3 | 1.9 | – | – | – | – | – | – | – | – | – | – | – | – | – | – | – | Approximate Solubility (mg/mL) in Excipient: Cottonseed oil [3]: >408.5 mg/mL; Approximate Solubility (mg/mL) in Excipient: Sesame oil [3]: >401.9 mg/mL; Approximate Solubility (mg/mL) in Excipient: Sesame oil [5]: >406.3 mg/mL |

Source: US10533015B1, “Opioid receptor antagonist prodrugs” (Nirsum Laboratories, Inc., priority 2019, dated 2020)
